Test results: patent US7799565B2, “Lipid encapsulated interfering RNA” (Protiva Biotherapeutics, Inc., priority 2004, dated 2010)

Experiments:
luciferase = assay: In vitro silencing of luciferase in stably transfected Neuro2A cells; assay type: cell-based; conditions: 48 hours; for luciferase expression relative to untreated control: cationic lipid incorporated in SNALP with anti-luciferase siRNA
Procedure: In vitro Transfection: Cells were cultured in MEM (Invitrogen) containing 10% fetal bovine serum (FBS) (CanSera) and 0.25 mg/mL G418 (Invitrogen). Neuro2A-G cells (Neuro2A cells stably transfected to express luciferase [R. E. Kingston. in Current Protocols in Molecular Biology, Vol. 2, pp. 9.1.4-9.1.9, John Wiley & Sons, Inc. (1997)]) were plated at a concentration of 4×10^4 cells per well in 24-well plates and grown overnight. Cells were treated with SNALP at doses of 0.0625-1.0 μg/mL nucleic acid (AntiLuc Active or Mismatch Control) and incubated for 48 hours at 37° C. and 5% CO2. Cells were then washed with PBS and lysed with 200 μL 250 mM sodium phosphate containing 0.1% Triton X-100. The luciferase activity for each well was determined using Luciferase Reagent (Promega) and a standard luciferase protein (Roche). The luminescence for each was measured using a Berthold MicroLumatPlus LB96V plate luminometer. The resulting luciferase activity was then normalized for the amount of protein using the Micro BCA assay kit (Pierce). Luciferase knockdown relative to a control was then determined for each system.
This example describes experiments comparing expression of nucleic acids following in vitro transfection of Neuro2A cells with SNALP comprising: (1) DODAC, DODMA, or DLinDMA; (2) PEG-C-DMA; and (3) an siRNA duplex directed against luciferase encapsulated in the SNALP (i.e., siRNA comprising the following sequence: […] and targeting the DNA sequence complementary to: […]). Neuro2A cells were stably transfected with a plasmid encoding luciferase under the control of the CMV promoter (pLO55). The stably transfected cells were then transfected with SNALP comprising: 15, 20, 25, 30, 35, or 40% of DODAC, DODMA, or DLinDMA; 2% PEG-C-DMA, and an siRNA duplex directed against luciferase encapsulated in the SNALP. Luciferase protein expression was measured 48 hours after transfection with SNALP.
The ability of SNALP containing each of the four cationic lipids (i.e., DSDMA, DODMA, DLinDMA, and DLenDMA) to effect gene silencing in stably transfected Neuro2A cells was evaluated. Neuro2A cells stably transfected to express the luciferase were treated with SNALP containing anti-luciferase siRNA for 48 hours. Gene-silencing efficiency was evaluated by comparing the remaining luciferase activity in these cells to that remaining in cells treated with control SNALP containing mismatch siRNA.

[1] = 31P-NMR phase transition of cationic lipid / DPPS vesicles; assay type: physicochemical; conditions: series DSDMA, DODMA, DLinDMA, DLenDMA
Procedure: ^31P Nuclear Magnetic Resonance Spectroscopy: Multilamellar vesicles (MLV) were prepared comprising DPPS and cationic lipid at a molar ratio of 1:1. This was accomplished by drying the lipids from chloroform solution, transferring to 10 mm NMR tubes, and hydrating in 1.5 mL of 10 mM sodium citrate, pH 4. Free induction decays (FIDs) corresponding to 1000 scans were obtained with a 3.0 μs, 60 o pulse with a 1 s interpulse delay and a spectral width of 25000 Hz. A gated two-level proton decoupling was used to ensure sufficient decoupling with minimum sample heating. An exponential multiplication corresponding to 50 Hz of line broadening was applied to the FIDs prior to Fourier transformation. The sample temperature (+/−1° C.) was regulated using a Bruker B-VT1000 variable temperature unit. Chemical shifts were referenced to 85% phosphoric acid as an external standard.

[2] = SNALP with anti-luciferase siRNA, versus control SNALP containing mismatch siRNA

| Structure (SMILES) | gene-silencing activity (luciferase; [2]) | luciferase expression relative to untreated control (luciferase) [%] | phase transition temperature [1] | knockdown in gene expression (luciferase; [2]) [%] |
| --- | --- | --- | --- | --- |
| CCCCCCCCCCCCCCCCCC[N+](C)(C)CCCCCCCCCCCCCCCCCC [DSDMA, Distearyldimethylammonium, reference compound] | no activity |  |  |  |
| CCCCCCCCCCCCCCCCCC[N+](C)(C)CCCCCCCCCCCCCCCCCC [DODMA, dioctadecyldimethylammonium, reference compound] |  | 54 |  |  |
| CC/C=C\C/C=C\C/C=C\CCCCCCCCOCC(CN(C)C)OCCCCCCCC/C=C\C/C=C\C/C=C\CC (stereo not shown) [DLenDMA, 1,2-Dilinolenyloxy-N,N-dimethylaminopropane] | slightly less efficient than those containing DLinDMA | 32 |  |  |
| CCCCC/C=C\C/C=C\CCCCCCCCOCC(CN(C)C)OCCCCCCCC/C=C\C/C=C\CCCCC (stereo not shown) [DLinDMA, 1,2-DiLinoleyloxy-N,N-dimethylaminopropane] |  | 21 | lowest phase transition temperature in the series | 80 |
